Experimental data: the NIST ThermoML archive (doi:10.1021/je060271a)

Settings: 343.15 K, Liquid, Vibrating tube method

CCCCCCC(=O)OCC(COC(=O)CCCCCC)(COC(=O)CCCCCC)COC(=O)CCCCCC [pentaerythritol tetraheptanoate]
Settings	mass density [kg/m3]
5115 kPa	944.4
5119.1 kPa	944.5
5124.1 kPa	944.5
5128.3 kPa	944.5
5132.4 kPa	944.4
5136.3 kPa	944.4
5141.1 kPa	944.4
5145.3 kPa	944.4
5149.6 kPa	944.5
5153.6 kPa	944.5
5158.6 kPa	944.5
5162.9 kPa	944.5
5167.1 kPa	944.5
5172.1 kPa	944.5
5176 kPa	944.4
5180 kPa	944.5
5184.4 kPa	944.4
5189.9 kPa	944.6
5193.9 kPa	944.4
5198 kPa	944.4
5202.4 kPa	944.7
5206.5 kPa	944.5
5211.7 kPa	944.6
5216 kPa	944.6
5220.2 kPa	944.5
5225 kPa	944.6
5229.2 kPa	944.5
5233.5 kPa	944.5
5237.6 kPa	944.5
5243.2 kPa	944.5
5247.3 kPa	944.7
5251.8 kPa	944.5
5256 kPa	944.7
5260.8 kPa	944.6
5265 kPa	944.6
5269.7 kPa	944.6
5273.8 kPa	944.5
5277.8 kPa	944.7
5281.4 kPa	944.6
5285 kPa	944.6
5291.6 kPa	944.7
5300.3 kPa	944.5
5308.9 kPa	944.7
5319.5 kPa	944.7
5328.6 kPa	944.7
5337.3 kPa	944.6
5348.2 kPa	944.6
5357.2 kPa	944.7
5366.4 kPa	944.6
5375.7 kPa	944.6
5386.4 kPa	944.6
5395.4 kPa	944.7
5406.3 kPa	944.9
5415.5 kPa	944.8
5425 kPa	944.8
5434.7 kPa	944.7
5444 kPa	944.7
5453.7 kPa	944.7
5464.8 kPa	944.8
5473.8 kPa	944.7
5485 kPa	945
5494.5 kPa	944.7
5504.2 kPa	944.8
5513.7 kPa	944.8
5525.5 kPa	944.8
5535 kPa	944.7
5544.7 kPa	944.8
5554.7 kPa	944.8
5568 kPa	944.8
5576.2 kPa	944.7
5587.6 kPa	944.8
5597.4 kPa	944.8
5607.3 kPa	944.8
5619.2 kPa	944.8
5629.1 kPa	944.8
5639.1 kPa	944.9
5650.9 kPa	944.9
5660.8 kPa	944.8
5671.1 kPa	944.8
5681.5 kPa	944.7
5694 kPa	944.9
5705.1 kPa	945
5715.3 kPa	944.9
5725.9 kPa	945
5737.8 kPa	944.9
5748.4 kPa	944.8
5758.7 kPa	945
5771 kPa	944.9
5781.7 kPa	944.9
5791.9 kPa	944.9
5802.8 kPa	944.9
5815.5 kPa	945.1
5826.5 kPa	945
5837.6 kPa	945.1
5848.7 kPa	945
5862 kPa	945
5872.5 kPa	944.9
5883.3 kPa	945
5894.5 kPa	945.1
5907.6 kPa	945.1
5918.9 kPa	945
5930.1 kPa	945.1
5941.2 kPa	945
5954.7 kPa	945.1
5965.7 kPa	945.3
5977 kPa	945
5990.6 kPa	945.1
6002 kPa	945
6013.3 kPa	945.2
6026.9 kPa	945.1
6038.5 kPa	945.2
6050.1 kPa	945.1
6063.9 kPa	945.1
6075.5 kPa	945.2
6087.4 kPa	945.2
6099.2 kPa	945.2
6113 kPa	945.2
6125.1 kPa	945.2
6137.2 kPa	945.3
6149.3 kPa	945.1
6163.7 kPa	945.3
6175.6 kPa	945.3
6187.7 kPa	945.2
6199.8 kPa	945.2
6214.5 kPa	945.3
6226.9 kPa	945.3
6239.4 kPa	945.3
6253.9 kPa	945.3
6266.1 kPa	945.3
6278.6 kPa	945.3
6293.3 kPa	945.3
6306.2 kPa	945.3
6319 kPa	945.5
6332 kPa	945.3
6347 kPa	945.4
6359.8 kPa	945.5
6372.6 kPa	945.4
6385.6 kPa	945.4
6400.6 kPa	945.4
6413.9 kPa	945.4
6426.9 kPa	945.3
6442.4 kPa	945.3
6456.1 kPa	945.4
6469 kPa	945.5
6482.7 kPa	945.4
6499.1 kPa	945.6
6512.8 kPa	945.5
6525.9 kPa	945.5
6541.8 kPa	945.6
6555.1 kPa	945.6
6568.9 kPa	945.6
6585.3 kPa	945.5
6598.8 kPa	945.5
6612.5 kPa	945.5
6629.2 kPa	945.6
6643.2 kPa	945.5
6657.6 kPa	945.7
6671.9 kPa	945.5
6687.1 kPa	945.5
6704 kPa	945.6
6718.4 kPa	945.6
6732.5 kPa	945.6
6747.4 kPa	945.7
6764.3 kPa	945.8
6779.2 kPa	945.8
6793.5 kPa	945.7
6811.1 kPa	945.6
6825.8 kPa	945.6
6840.7 kPa	945.8
6855.9 kPa	945.7
6874.2 kPa	945.8
6887.1 kPa	945.8
6904.9 kPa	945.9
6920.2 kPa	945.8
6935.6 kPa	945.8
6953.6 kPa	945.8
6968.8 kPa	945.9
6984.8 kPa	945.8
7000.2 kPa	945.7
7019.2 kPa	946
7034.9 kPa	945.7
7050.8 kPa	945.8
7069.3 kPa	945.8
7085.7 kPa	945.9
7101.8 kPa	945.9
7117.8 kPa	946
7137.2 kPa	945.9
7153.2 kPa	946
7169.6 kPa	945.9
7186 kPa	945.8
7205.5 kPa	945.9
7221.8 kPa	946
7241.8 kPa	946
7258.6 kPa	946
7275.1 kPa	945.9
7292.1 kPa	946.1
7312.3 kPa	946.1
7329.7 kPa	946.2
7347 kPa	946.1
7364.6 kPa	946.1
7385.1 kPa	946.1
7402.4 kPa	946.2
7420 kPa	946.2
7437.8 kPa	946.2
7458.7 kPa	946.2
7476.1 kPa	946.2
7494.2 kPa	946.1
7515.3 kPa	946.3
7533.4 kPa	946.1
7551.9 kPa	946.3
7570.4 kPa	946.3
7592.1 kPa	946.3
7610.3 kPa	946.4
7628.9 kPa	946.4
7650.8 kPa	946.3
7669.1 kPa	946.3
7688.1 kPa	946.3
7710.2 kPa	946.3
7729.2 kPa	946.3
7748.3 kPa	946.4
7767.5 kPa	946.4
7790.8 kPa	946.4
7810.5 kPa	946.5
7830.3 kPa	946.5
